Laboratory results: US5200343A, “Method for microbial dehalogenation of haloaliphatic compounds using a sulfate reducing bacteria, desulfomonile tiedjei” (Board of Trustees operating Michigan State University, priority 1991, dated 1993)
Where two headings read alike, the source gives them in different places.

Assays:
dechlorination of 3CB = conditions: cited from earlier work
[1] = tested on: 3-Chlorobenzoate Dechlorination Activity; assay: Induction of 3-chlorobenzoate dechlorination activity by growth with 3-chlorobenzoate, analogues, or chloro- and iodobenzoates (Tables 4, 5); assay type: cell-based, Desulfomonile tiedjei
Procedure: Table 4. Cultures were grown in the presence of 3-chlorobenzoate or a 3-chlorobenzoate analogue substituted at the 1- or 3- position with the indicated functional groups. After several generations the culture were concentrated, washed and resuspended in anaerobic buffered salts containing 1 mM 3-chlorobenzoate and 10 mM pyruvate (as electron donor). […] After two hours samples were taken for benzoate analysis by HPLC. Values presented are the average of duplicate or triplicate cultures ± sample standard deviation.
Table 5. Chloro- and iodobenzoates were tested as inducers of 3-chlorobenzoate dehalogenation activity as described in the legend to Table 4. All compounds were initially at 500 μM; the 3-halo compounds were amended during growth as they were dehalogenated. Values presented are the average of duplicate or triplicate cultures± sample standard deviation.

[2] = tested on: Dechlorination of 3-Chlorobenzoate; assay: Dechlorination of 3-chlorobenzoate in the presence of various analogues by induced cells (Table 6); assay type: cell-based; conditions: Desulfomonile tiedjei, read-out: dechlorination of 3-chlorobenzoate in the presence of analogue, % of Control
Procedure: […]. 3-fluorobenzoate induced cultures were washed and resuspended essentially as described in the legend to […] with 100 μM 3-chlorobenzoate and the indicated analogues at 500 μM. Dechlorination rates were normalized to the rate in assays with no analogue to obtain the values presented.

[3] = tested on: Desulfomonile tiedjei cells; assay: Effect of different medium reductants and sterilant on PCE dechlorination by induced cells (Table 2); assay type: cell-based; conditions: formaldehyde, final concentration 0.2%
Procedure: (§1) The concentration of nicotinamide and 1,4-naphthoquinone were 500 μgl^-1 and 200 μgl^-1, respectively. Thiamine, hemin and lipoic acid were used at 50 μg/liter. To induce 3-chlorobenzoate dechlorination activity, 3-fluorobenzoate was added to 0.1 mM. The complete medium was inoculated with a 1% transfer from homologous medium (without fluorobenzoate). Cultures were grown at 37° C. in the dark for about 14 days for fresh cells or 28 days for starved stationary phase cells.
(§2) Cultures were harvested by centrifugation and resuspended in 20 to 40% of the initial volume in a cold anaerobic assay buffer normally consisting of 50 mM NaCl, 10 mM sodium pyruvate, 10 mM HEPES (N-2[hydroxyethylP]piperazine-N'-[2-ethanesulfonic acid], hemisodium salt Sigma);, 0.00001% resazurin and reduced with 1 mM cysteine-HCl and 1 mM titanium (III) citrate. Resuspended cells were used to completely fill N2 sparged 10 ml serum bottles after which chlorinated ethylenes were added from a 0.5 or 1 mg/ml stock in methanol for PCE and TCE respectively. The vials were immediately sealed with Teflon lined rubber septa and aluminum crimp seals, leaving no headspace. The assays were commenced by transferring the serum bottles to a 37° C. water bath. The assays were terminated at the indicated times by transferring the serum bottles to an ice water bath, where they were stored until analyzed.
(§3) Chlorinated ethylenes were monitored with a Tekmar purge and trap unit (model 4000) connected to a Hewlett-Packard GC (Sunnyville, Calif.) equipped with an HP-5 cappillary column (30 m×0.53 mm×2.6 μm film thickness) and flame ionization detector. Samples (5 ml) were purged onto Tenax TA (Supelco, Bellefonte, Pa.) adsorbent with helium (30 ml/min for 16 min.), desorbed (180° C. for 4 min.), and separated using helium as a carrier at 6 ml/min. The temperature program was 30° C. for 8 min, increasing to 200° C. at 4° C./min and followed by an isothermal period of 5 min. The injection and detector temperatures were 220° C. and 300° C., respectively. PCE and its dechlorinated products were identified by comparison with authentic standards.
Data are the average of duplicate vials and […]

[4] = tested on: Desulfomonile tiedjei cells; assay: PCE and TCE dechlorination by resuspended cells induced with 3-fluorobenzoate versus non-induced cells (Table 1, FIG. 1); assay type: cell-based; conditions: for Mole % recovered, TCE / Mole % recovered, cis-DCE / Total Cl Removed: 2 μg/ml substrate, 37° C., 2 hr; for Mole % recovered, TCE / Mole % recovered, cis-DCE: average of duplicate vials; for Total Cl Removed: calculated from input concentration and Mole % recovered
Procedure: as §1, with “Cultures were grown using strict anaerobic technique in a synthetic minimal medium amended with vitamins (DeWeerd, et al, Arch. of Microbiol. 154, 23-30 (1990)), pyruvate at 20 mM, and reduced with 1 mM cysteine and 0.1 mM Na2 S2 O4. The concentration” for “The concentration”
as §2, with “analyzed. Protein concentrations were determined by a modification of the Lowry method (Hanson, R. S. and J. A. Phillips, In P. Gerhardt (ed.) Manual of methods for general microbiology. American Society for Microbiology, Washington, D. C. p. 328-364 (1981)).” for “analyzed.”
as §3
To further examine the transformation of both PCE and TCE and to determine if dechlorination of TCE also requires induction, a similar experiment was conducted to measure the initial transformation rates of PCE and TCE (Table 1.). […] The extent of transformation of PCE to TCE ([…] in 2H) was considerably faster than the rate of transformation of TCE to DCE ([…] in 2h), as expected from the redox potentials of these reactions (Vogel, T. M., et al., Environ. Sci. Technol. 21:722-736 (1987)) and results from mixed culture systems (Bouwer, E. J., and P. L. McCarty, Appl. Environ. Microbiol. 45:1286-1294 (1983)). The rate of transformation of PCE and TCE were much greater for the induced cultures than for the non-induced cultures.
^a suspensions were amended with PCE or TCE to a final concentration
of 2 μg/ml and incubated at 37° C. for 2 hr. Suspensions of
induced and uninduced cells contained 149 and 153 μg protein per ml
^b Data are presented as the average of duplicate vials with the
sample standard deviation in parenthesis.
^c Calculated from the input concentration of chlorinated ethylenes
and the Mole % of recovered material.

[5] = growing cells and resuspended cells
[6] = Table 4, inducers at 500 μM except 3-formylbenzoate 100 μM and 3-chlorobenzoate (amended at intervals), assay 1 mM 3-chlorobenzoate, two hours
[7] = 100 μM 3-chlorobenzoate, analogue 500 μM, normalized to rate with no analogue
[8] = Table 5, inducers initially 500 μM, 3-halo compounds amended during growth

O=S(=O)(O)O [Sulfate]
effect on dechlorination of 3CB (dechlorination of 3CB; cells growing on a different medium or resuspended cells): not by cells growing on a different medium or by resuspended cells | effect on dechlorination of 3CB (dechlorination of 3CB; cells growing on one medium): inhibited dechlorination of 3CB

O=S(O)(O)=S [Thiosulfate]
effect on dechlorination of 3CB (dechlorination of 3CB; [5]): inhibit dechlorination of 3CB

N#Cc1cccc(C(=O)O)c1 [--COOH --CN]
Induction Activity (3-chlorobenzoate dechlorination activity) [1, 6]: 7 ± 1 nMol/hr/mg protein | activity at 500 µM [2]: 76%

O=S(O)O [sulfite]
effect on dechlorination of 3CB (dechlorination of 3CB; [5]): inhibit dechlorination of 3CB

Cc1cccc(C(=O)O)c1 [3-methyl-benzoate]
Induction Activity (3-chlorobenzoate dechlorination activity) [1, 6]: 409 ± 6 nMol/hr/mg protein | activity at 500 µM [2, 7]: 119%

O=C(O)c1ccccc1 [--COOH --H, benzoate]
activity at 500 µM [2]: 106%

O=C(O)c1ccccc1I [2-iodobenzoate]
Induction Activity (3-chlorobenzoate dechlorination activity) [1, 8]: 13 ± 9 nMol/hr/mg protein

O=C(O)c1ccccc1Cl [2-chloro-]
Induction Activity (3-chlorobenzoate dechlorination activity) [1, 8]: 0 ± 0 nMol/hr/mg protein

OCc1cccc(Cl)c1 [--CH2 OH --Cl, 3-chlorobenzyl alcohol]
Induction Activity (3-chlorobenzoate dechlorination activity) [1, 6]: 86 ± 5 nMol/hr/mg protein | activity at 500 µM [2, 7]: 108%

C=O [formaldehyde]
effect on PCE dechlorination [3]: almost totally blocked dechlorination

O=C(O)c1cccc(F)c1 [3-fluorobenzoate]
Induction Activity (3-chlorobenzoate dechlorination activity) [1, 6]: 570 ± 37 nMol/hr/mg protein | activity at 500 µM [2, 7]: 114%

O=C(O)c1cccc(C(F)(F)F)c1 [--COOH --CF3, m-trifluoromethyl benzoate]
Induction Activity (3-chlorobenzoate dechlorination activity) [1, 6]: 383 ± 6 nMol/hr/mg protein | activity at 500 µM [2, 7]: 94%

O=C(O)c1cccc(O)c1 [--COOH --OH]
Induction Activity (3-chlorobenzoate dechlorination activity) [1, 6]: 3 ± 4 nMol/hr/mg protein | activity at 500 µM [2, 7]: 91%

ClC=C(Cl)Cl [TCE, trichloroethylene]
product formation from PCE or TCE ([4]; Only cultures pre-induced with 3-fluorobenzoate): measurable product formation | Mole % recovered, TCE ([4]; induced (+)): 89.2 Mole % | Mole % recovered, cis-DCE ([4]; induced (+)): 10.8 Mole % | Total Cl Removed ([4]; induced (+)): 11.0 μmol/g prot. in 2 h | Mole % recovered, TCE ([4]; non-induced (-)): 100.0 Mole % | Mole % recovered, cis-DCE ([4]; non-induced (-)): 0.0 Mole % | Total Cl Removed ([4]; non-induced (-)): 0.0 μmol/g prot. in 2 h | rate of transformation of TCE to DCE ([4]; pre-induced with 3-fluorobenzoate): 11 mol g protein ^-1 in 2h

Nc1cccc(C(=O)O)c1 [--COOH --NH2]
Induction Activity (3-chlorobenzoate dechlorination activity) [1, 6]: 4 ± 1 nMol/hr/mg protein | activity at 500 µM [2, 7]: 78%

O=C(O)c1ccc(I)cc1 [4-iodobenzoate]
Induction Activity (3-chlorobenzoate dechlorination activity) [1, 8]: 7 ± 10 nMol/hr/mg protein

O=Cc1cccc(C(=O)O)c1 [3-formylbenzoate]
Induction Activity (3-chlorobenzoate dechlorination activity) [1, 6]: 8 ± 1 nMol/hr/mg protein

O=C(O)c1cccc(I)c1 [3-iodo-, m-iodobenzoate]
Induction Activity (3-chlorobenzoate dechlorination activity) [1, 8]: 582 ± 59 nMol/hr/mg protein
